Data set [1] concerns Sprague Dawley rats. As to the kind of experiment: Subchronic PCP-induced social interaction deficits. Format: in vivo, rat. From the text: Phencyclidine (PCP) administered to humans as well to experimental animals induces full-spectrum of schizophrenia symptoms, including negative symptoms and cognitive deficits. A major symptom of schizophrenia is considered to be social isolation/withdrawal as part of the cluster of negative symptoms. Subchronic treatment with PCP in rats leads to the development of clear signs of social withdrawal as measured by deficits in the interaction time with a cage intruder rat.
Male Sprague Dawley rats (˜150 g on arrival) from Harlan (Indiana) were used in this study. Upon receipt, rats were group housed in OPTI rats ventilated cages. Rats were housed in groups of 2-3/cage for the remainder of the study. During the period of acclimation, rats were examined on a regular basis, handled, and weighed to assure adequate health and suitability. Rats were maintained on a 12/12 light/dark cycle with the light on at 7:00 a.m. The room temperature was maintained between 20 and 23° C. with a relative humidity maintained between 30% and 70%. Chow and water were provided ad libitum for the duration of the study. Animals were randomly assigned across treatment groups and balanced by age. Animals were not disturbed between test days.
The following compounds were used. 1) Compound No. 88 or 90 (0.3, 1 and 3 mg/kg; p.o.) was dissolved in 3% Tween and PBS and administered 30 min prior to test; 2) PCP (2 mg/kg; s.c.) was dissolved in saline and administered twice daily for 5 days prior to test day; 3) Clozapine (2.5 mg/kg; i.p.) was dissolved in 5% PEG:5% Tween 80 in saline and administered 30 min. prior to test. All compounds were administered at a dose volume of 1 mL/kg.
For five days prior to test, rats were injected twice daily with either PCP (2 mg/kg; s.c) or saline (s.c). On day 6 and following a 30 min pretreatment with vehicle, clozapine or Compound No. 90, a pair of rats, unfamiliar to each other, receiving the same treatment were placed in a white plexiglas open field arena (24″×17″×8″) and allowed to interact with each other for 6 min. Social interactions (‘SI’) included: sniffing the other rat; grooming the other rat; climbing over or under or around the other rat; following the other rat; or exploring the ano-genital area of the other rat. Passive contact and aggressive contact were not considered a measure of social interaction. The time the rats spent interacting with each other during the 6 min test was recorded by a trained observer. The social interaction chambers were thoroughly cleaned between the different rats.
Data were analyzed by analysis of variance (ANOVA) followed by post-hoc analysis (e.g., Fischer, Dunnett) when appropriate. An effect was considered significant if p<0.05.

Data set [2] relates to Sprague Dawley rats.
Procedure: The two-trial object recognition paradigm developed by Ennaceur and Delacour in the rat was used as a model of episodic short term memory.
The experiments were carried out using 174-186 male Sprague Dawley rats (Centre d'Elevage R. Janvier, B. P. 55, 53940 Le Genest-Saint-Isle, F.). 143-146 rats met inclusion criteria described in the experimental procedure. In addition, 24 satellite animals were used for pharmacokinetic analysis. The rats (main study and pharmacokinetic study) weighed between 233 and 283 g (6-7 weeks old) at the beginning of the experiments. […] Rats were allowed to acclimate to environmental conditions for at least 5 days prior to experimentation. Rats were numbered by marking their tail with indelible markers.
Each solution was prepared fresh each day of dosing. […] No corrective factor is required. […] PEG200 was dissolved in water for injection. The volume of administration was 10 mL/kg body weight for the oral route of administration and 5 mL/kg body weight for intraperitoneal route of administration. Each solution was prepared fresh each day of dosing.
The experimental arena is a square wooden box (60×60×40 cm) painted dark blue, with 15×15 cm black painted squares under a clear plexiglass floor. The arena and the objects were cleaned using water between each trial in order to avoid odour trails left by rats. The arena was placed in a dark room illuminated only by halogen lamps oriented towards the ceiling and giving an uniform dim light in the box (around 60 lux). Animals to be tested were placed in the experimental room at least 30 min before testing.
Rats were submitted to two trials spaced by an intertrial interval of 24 h. During the first trial (acquisition trial, T1), rats were placed in the arena containing 2 identical objects and time required by each animal to complete 15 sec. of object exploration was determined with a cut-off time of 4 min. Exploration was considered to be directing the nose at a distance less than 2 cm from the object and/or touching the object. For the second trial (testing trial, T2), one of the objects presented in the first trial was replaced by an unknown object (novel object), rats were placed back in the arena for 3 min and exploration of each object was determined. For both T1 and T2, locomotor activity of rats was scored.
Using group numbers of 18, rats were randomized to constitute the following groups: 1) Vehicle (5% PEG200 in water) p.o.; 2) Compound No. 88 or 90 (0.03 mg/kg) p.o.; 3.
The following parameters were measured: 1) Time required to achieve 15 sec. of object exploration on T1 (sec.); 2) Locomotor activity on T1 (number of crossed lines); 3) Time spent in active exploration of the familiar object on T2 (sec.)=TF; 4) Time spent in active exploration of the novel object on T2 (sec.)=TN; 5) Locomotor activity on T2 (number of crossed lines).
All parameters were analysed using SAS software (version 8.2). Statistical tests were performed with an alpha level of 0.05.
For data set [3], the target named is human dopamine D2L receptor (Homo sapiens, UniProt P14416). As to the kind of experiment: GTPγS functional assay, dopamine D2L (CHO-K1 membrane extracts). As to conditions: for inhibition at 0.005 µM: antagonist concentration 5 nM; for inhibition at 0.05 µM: antagonist concentration 50 nM; for inhibition at 0.5 µM: antagonist concentration 500 nM; for inhibition at 5 µM: antagonist concentration 5000 nM; for inhibition at 15 µM: antagonist concentration 15000 nM. Further details: host or cells: CHO-K1 co-expressing mitochondrial apoaequorin and Gα16. Format: biochemical. From the text: To study the functional activity of compounds of the invention on the human recombinant dopamine D2L with Aequorin, GTPγS and cAMP functional assays and on the human recombinant serotonin 5-HT2A receptor with Aequorin, CHO-K1 cell lines expressing D2L or 5-HT2A recombinant receptor, mitochondrial apoaequorin and Gα16 were used for the Aequorin assay. CHO-K1 cell line expressing the recombinant D2L receptor was used for the cAMP assay and was amplified to prepare membranes used for the GTPγS assay.
Chain of human dopamine D2L receptor (P14416 whole entry): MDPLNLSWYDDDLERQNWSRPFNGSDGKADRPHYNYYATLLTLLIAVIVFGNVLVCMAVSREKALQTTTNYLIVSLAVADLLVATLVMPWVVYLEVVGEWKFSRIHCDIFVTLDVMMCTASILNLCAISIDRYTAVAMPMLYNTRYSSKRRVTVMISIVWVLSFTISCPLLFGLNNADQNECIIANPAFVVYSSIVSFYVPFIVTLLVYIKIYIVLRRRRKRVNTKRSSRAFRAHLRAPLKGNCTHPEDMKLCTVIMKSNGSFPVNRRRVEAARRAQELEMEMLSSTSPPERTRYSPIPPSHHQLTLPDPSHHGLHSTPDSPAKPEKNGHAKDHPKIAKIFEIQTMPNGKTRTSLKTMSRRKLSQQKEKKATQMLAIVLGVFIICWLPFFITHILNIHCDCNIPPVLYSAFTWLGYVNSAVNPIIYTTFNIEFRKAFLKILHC
GTPγS Assay Procedure: Assay buffer [20 mM HEPES pH 7.4; 100 mM NaCl, 10 μg/mL saponin, 30 mM MgCl2]; Membranes [Recombinant CHO-K1-D2L membrane extracts thawed on ice and diluted in assay buffer to give 1 mg/mL (10 μg/10 μL) and kept on ice]; GDP [diluted in assay buffer to give […] final concentration]; Beads [PVT-WGA (Amersham, RPNQ0001), diluted in assay buffer at 25 mg/mL (0.25 mg/10 μL)]; GTPγ35S [(PerkinElmer NEG030X), diluted in assay buffer to give 0.1 nM final concentration]; Ligand [Quinpirol (Tocris, 1061) as reference agonist and haloperidol (Tocris, 0931) as reference antagonist, diluted in assay buffer]. Membranes were mixed with GDP (volume:volume) and incubated for at least 15 min on ice. In parallel, GTPγ[^35S] was mixed with the beads (volume:volume) just before starting the reaction. For agonist testing, the following reagents are successively added in the wells of an Optiplate (Perkin Elmer): 50 μL of test or reference ligand, 20 μL of the membranes:GDP mix, 10 μL of assay buffer and 20 μL of the GTPγ[^35S]:beads mix. For antagonist testing, the following reagents were successively added in the wells of an Optiplate (Perkin Elmer): 50 μL of test or reference ligand, 20 μL of the membranes:GDP mix, and then after an incubation of 15 min at room temperature, 10 μL of reference agonist at historical EC80 concentration and 20 μL of the GTPγ[^35S]:beads mix. The plates were covered with a top seal, mixed on an orbital shaker for 2 min, and then incubated for 1 h at room temperature. Then the plates were centrifuged for 10 min at 2000 rpm, incubated at room temperature 1 h and counted for 1 min/well with a Perkin Elmer TopCount reader. Compounds were tested for antagonist activity at the human dopamine D2L receptor (FAST-0101G) at the following nanomolar concentrations, in duplicate: Antagonist (nM): 5, 15, 50, 150, 500, 1500, 5000, 15000.

[4] abbreviates: 0.03, 0.1, 0.3, 1 and 3 mg/kg p.o.
The mark [5] stands for this setting: antagonist concentration 150 nM.
Setting [6] is: antagonist concentration 1500 nM.
The mark [7] stands for this setting: 0.03, 0.1, 0.3, 1, 3 and 10 mg/kg p.o.

Here are results for three molecules from patent US8906925B2, “Pyrido[4,3-B]indoles containing rigid moieties” (Medivation Technologies, Inc., priority 2008, dated 2014).

Like-named read-outs stand apart in the source and are kept apart here.

What is called inhibition is the relative decrease from the control value, in per cent. For `C/C(=C\n1c2c(c3cc(Cl)ccc31)CN(C)CC2)c1ccncc1` [Compound 90, (E)-8-chloro-2,3,4,5-tetrahydro-2-methyl-5-(2-(pyridin-4-yl)prop-1-enyl)-1H-pyrido[4,3-b]indole], the “PCP-induced decrease of social interaction” value in data set [1] (1 mg/kg p.o., 30 min prior to test) is on record as “fully reversed”. The “sedation in the home cage during pretreatment time” value in data set [1] (3 mg/kg p.o.) is on record as “Mild sedation”. Also, in data set [1] (0.3 and 3 mg/kg p.o., did not reach control levels (partial reversal)), the “deficits in social interaction time induced by chronic PCP” value is given as “significantly attenuated”. Besides, in data set [2] (0.1 mg/kg p.o.), the “memory performance (TN−TF and RI) compared to vehicle, ANOVA + Dunnett's test” value is given as “reached the threshold of statistical significance”. In addition, the “memory performance (TN−TF and RI) compared to vehicle, ANOVA + Dunnett's test” value in data set [2] (1 mg/kg p.o.) is on record as “reached the threshold of statistical significance”. Also, in data set [2] (setting [4]), the “memory performance (TN−TF and RI values)” value is on record as “improved”; the “number of "good learners" (Δ≧5 sec.)” value was “confirmed the cognitive enhancing activity”. Further, the “locomotor activity assessed during T1 and T2” value in data set [2] (rat, in vivo, po, 3 mg/kg) is “no statistically significant effects”. In addition, in data set [3], the inhibition at 0.005 µM turned out to be 59%, the inhibition at 0.05 µM worked out at 106%, the inhibition at 0.5 µM was 109% and the inhibition at 5 µM stood at 112%. Moreover, the inhibition at 15 µM in data set [3] came out at 116%. Also, the inhibition at […] in data set [3] (antagonist concentration 15 nM) worked out at 101%. Further, the inhibition at […] in data set [3] (setting [5]) amounted to 109%. In addition, the inhibition at […] in data set [3] (setting [6]) was found to be 116%.

As to `C/C(=C\n1c2c(c3cc(Cl)ccc31)CN(C)CC2)c1ccc(F)cc1` [Compound 83, (E)-8-chloro-5-(2-(4-fluorophenyl)prop-1-enyl)-2,3,4,5-tetrahydro-2-methyl-1H-pyrido[4,3-b]indole], in data set [3], the inhibition at 0.005 µM came out at 51.8%, the inhibition at 0.05 µM is 104%, the inhibition at 0.5 µM was 118% and the inhibition at 5 µM was determined as 111%. Besides, in data set [3], the inhibition at 15 µM is 105%. Besides, the inhibition at […] in data set [3] (antagonist concentration 15 nM) was found to be 90%. For the same molecule, in data set [3] (setting [5]), the inhibition at […] amounted to 109%. Also, in data set [3] (setting [6]), the inhibition at […] is 113%.

Regarding `C/C(=C\n1c2c(c3cc(C)ccc31)CN(C)CC2)c1ccncc1` [Compound 88, (E)-2,3,4,5-tetrahydro-2,8-dimethyl-5-(2-(pyridin-4-yl)prop-1-enyl)-1H-pyrido[4,3-b]indole], the “PCP-induced decrease of social interaction time” value in data set [1] (0.3, 1 and 3 mg/kg p.o., 30 min prior to test) was “attenuated”. The “memory performance (TN−TF and RI) compared to vehicle, ANOVA + Dunnett's test” value in data set [2] (0.3 mg/kg p.o.) is on record as “reached the threshold of statistical significance”. Also, the “memory performance (TN−TF and RI) compared to vehicle, ANOVA + Dunnett's test” value in data set [2] (1 mg/kg p.o.) is given as “reached the threshold of statistical significance”. Moreover, in data set [2] (setting [7]), the “memory performance (TN−TF and RI values)” value is given as “improved”; the “number of "good learners" (Δ≧5 sec.)” value is “confirmed the cognitive enhancing activity”. Further, the “cognitive enhancing activity (delay of onset of natural forgetting)” value in data set [2] (single oral administration 0.03, 0.1, 0.3, 1, 3 and 10 mg/kg, 30 min before T1) is on record as “displayed a cognitive enhancing activity”.
